Data from ChEMBL document CHEMBL5038581, “Design, synthesis, and biological evaluation of novel dual inhibitors targeting lysine specific demethylase 1 (LSD1) and histone deacetylases (HDAC) for treatment of gastric cancer” (Eur J Med Chem, 2021).

Legend:
HCT-116 = assay: cells; conditions: Homo sapiens, HCT-116, 72 h
[1] = biological target: T1, Lysine-specific histone demethylase 1A (Homo sapiens, UniProt O60341); assay: Inhibition of recombinant LSD1 (157 to 852 residues) (unknown origin) expressed in Escherichia coli BL21 (DE) using H3K4me2 as substrate by amplex red assay
[2] = biological target: T2, Protein deacetylase HDAC6 (Homo sapiens, UniProt Q9UBN7); assay: Inhibition of HDAC6 (unknown origin) using Ac-peptide as substrate preincubated for 15 mins followed by substrate addition by fluorescence assay
T2 sequence (Q9UBN7 whole entry): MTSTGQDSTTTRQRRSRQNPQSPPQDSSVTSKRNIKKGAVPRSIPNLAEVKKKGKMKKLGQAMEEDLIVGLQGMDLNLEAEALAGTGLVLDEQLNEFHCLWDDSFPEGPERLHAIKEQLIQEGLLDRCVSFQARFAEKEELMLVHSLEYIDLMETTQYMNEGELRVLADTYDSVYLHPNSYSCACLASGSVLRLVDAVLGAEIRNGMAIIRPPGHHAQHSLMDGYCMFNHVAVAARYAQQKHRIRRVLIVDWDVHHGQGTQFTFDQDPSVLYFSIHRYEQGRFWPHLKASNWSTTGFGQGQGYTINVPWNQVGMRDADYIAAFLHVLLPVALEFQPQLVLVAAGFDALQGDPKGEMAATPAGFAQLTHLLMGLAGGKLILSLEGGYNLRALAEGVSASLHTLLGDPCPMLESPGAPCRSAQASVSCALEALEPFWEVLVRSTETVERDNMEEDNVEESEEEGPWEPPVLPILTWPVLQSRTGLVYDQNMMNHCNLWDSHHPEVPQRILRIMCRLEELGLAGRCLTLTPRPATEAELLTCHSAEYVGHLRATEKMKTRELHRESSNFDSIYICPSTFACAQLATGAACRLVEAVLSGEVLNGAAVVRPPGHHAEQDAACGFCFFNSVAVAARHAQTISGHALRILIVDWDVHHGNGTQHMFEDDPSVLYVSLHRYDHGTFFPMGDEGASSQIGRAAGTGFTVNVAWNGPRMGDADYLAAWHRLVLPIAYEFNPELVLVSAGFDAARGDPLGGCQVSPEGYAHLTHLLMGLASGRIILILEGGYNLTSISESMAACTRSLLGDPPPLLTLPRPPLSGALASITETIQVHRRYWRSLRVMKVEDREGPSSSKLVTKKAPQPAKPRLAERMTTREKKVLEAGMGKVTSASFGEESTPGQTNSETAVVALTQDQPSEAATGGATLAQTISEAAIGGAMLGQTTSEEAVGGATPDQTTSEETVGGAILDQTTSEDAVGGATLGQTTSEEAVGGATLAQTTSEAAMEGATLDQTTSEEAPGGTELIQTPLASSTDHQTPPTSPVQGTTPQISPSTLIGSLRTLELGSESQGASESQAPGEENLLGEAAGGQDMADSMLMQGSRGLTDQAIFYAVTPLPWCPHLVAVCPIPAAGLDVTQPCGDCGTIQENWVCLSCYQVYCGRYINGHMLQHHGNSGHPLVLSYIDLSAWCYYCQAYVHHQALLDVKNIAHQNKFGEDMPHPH

MGC-803 [3] = assay: cells; conditions: Homo sapiens, MGC-803, 72 h
Histone deacetylase 5 = Histone deacetylase 5 (Homo sapiens, UniProt Q9UQL6); assay: Inhibition of HDAC5 (unknown origin) using Ac-peptide as substrate preincubated for 15 mins followed by substrate addition by fluorescence assay
Histone deacetylase 1 = Histone deacetylase 1 (Homo sapiens, UniProt Q13547); assay: Inhibition of HDAC1 (unknown origin) using Ac-peptide as substrate preincubated for 15 mins followed by substrate addition by fluorescence assay
[4] = biological target: T1, Lysine-specific histone demethylase 1A; assay: Inhibition of recombinant LSD1 (157 to 852 residues) (unknown origin) expressed in Escherichia coli BL21 (DE) at 10 uM using H3K4me2 as substrate by amplex red assay relative to control
MGC-803 [5] = assay: Induction of apoptosis in human MGC-803 cells assessed as apoptotic cells at 5 uM incubated for 48 hrs by annexin V-FITC and PI staining based flowcytometry analysis (Rvb =4.3 %); type: functional
Histone deacetylase 2 = Histone deacetylase 2 (Homo sapiens, UniProt Q92769)
CYP1A2 = biological target: T3, CYP1A2 (Homo sapiens, UniProt P05177); assay: in vitro; conditions: probe phenacetin
T3 sequence (P05177 whole entry): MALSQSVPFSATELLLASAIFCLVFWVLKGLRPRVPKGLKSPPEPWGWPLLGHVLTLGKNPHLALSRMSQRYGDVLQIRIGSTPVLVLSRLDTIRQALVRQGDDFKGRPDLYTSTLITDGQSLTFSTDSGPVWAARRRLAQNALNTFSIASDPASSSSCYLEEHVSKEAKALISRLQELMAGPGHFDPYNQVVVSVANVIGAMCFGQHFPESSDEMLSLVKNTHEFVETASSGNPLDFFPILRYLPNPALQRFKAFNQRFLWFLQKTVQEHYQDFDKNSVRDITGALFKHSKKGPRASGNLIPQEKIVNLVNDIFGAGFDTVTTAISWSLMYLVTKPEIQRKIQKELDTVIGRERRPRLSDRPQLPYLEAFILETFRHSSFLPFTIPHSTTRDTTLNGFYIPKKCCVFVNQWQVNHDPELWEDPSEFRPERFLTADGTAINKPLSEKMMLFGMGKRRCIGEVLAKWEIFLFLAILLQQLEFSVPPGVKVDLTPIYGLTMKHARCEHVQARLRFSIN

BGC-823 = assay: cells; conditions: Homo sapiens, BGC-823, 72 h
NCI-N87 = assay: cells; conditions: Homo sapiens, NCI-N87, 72 h
MKN-1 = assay: cells; conditions: Homo sapiens, MKN-1, 72 h
SNU1 = assay: cells; conditions: Homo sapiens, SNU1, 72 h
AGS = assay: cells; conditions: Homo sapiens, 72 h
MKN-45 = assay: cells; conditions: Homo sapiens, MKN-45, 72 h
CYP2C9 = CYP2C9 (Homo sapiens, UniProt P11712); assay: in vitro; conditions: probe diclofenac
MGC-803 [6] = assay: Antiproliferative activity against human MGC-803 cells assessed as reduction in cell viability at 10 uM after 72 hrs by CellTiter-Glo assay; type: functional

Chain of Histone deacetylase 1 (Q13547 whole entry, the tested form may be a part): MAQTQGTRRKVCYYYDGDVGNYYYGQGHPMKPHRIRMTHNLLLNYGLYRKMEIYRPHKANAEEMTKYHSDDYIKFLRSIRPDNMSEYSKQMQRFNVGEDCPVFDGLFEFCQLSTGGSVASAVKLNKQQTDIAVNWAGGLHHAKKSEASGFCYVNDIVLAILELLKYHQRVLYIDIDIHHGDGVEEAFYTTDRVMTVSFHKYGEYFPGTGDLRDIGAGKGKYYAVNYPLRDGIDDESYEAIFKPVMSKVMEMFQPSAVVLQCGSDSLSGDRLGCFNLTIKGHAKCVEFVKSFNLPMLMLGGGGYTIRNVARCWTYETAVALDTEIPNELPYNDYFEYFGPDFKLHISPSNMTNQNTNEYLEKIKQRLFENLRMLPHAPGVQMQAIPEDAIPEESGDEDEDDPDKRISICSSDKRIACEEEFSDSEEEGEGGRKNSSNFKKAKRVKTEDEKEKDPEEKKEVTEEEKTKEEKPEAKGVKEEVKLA
Chain of Histone deacetylase 5 (Q9UQL6 whole entry): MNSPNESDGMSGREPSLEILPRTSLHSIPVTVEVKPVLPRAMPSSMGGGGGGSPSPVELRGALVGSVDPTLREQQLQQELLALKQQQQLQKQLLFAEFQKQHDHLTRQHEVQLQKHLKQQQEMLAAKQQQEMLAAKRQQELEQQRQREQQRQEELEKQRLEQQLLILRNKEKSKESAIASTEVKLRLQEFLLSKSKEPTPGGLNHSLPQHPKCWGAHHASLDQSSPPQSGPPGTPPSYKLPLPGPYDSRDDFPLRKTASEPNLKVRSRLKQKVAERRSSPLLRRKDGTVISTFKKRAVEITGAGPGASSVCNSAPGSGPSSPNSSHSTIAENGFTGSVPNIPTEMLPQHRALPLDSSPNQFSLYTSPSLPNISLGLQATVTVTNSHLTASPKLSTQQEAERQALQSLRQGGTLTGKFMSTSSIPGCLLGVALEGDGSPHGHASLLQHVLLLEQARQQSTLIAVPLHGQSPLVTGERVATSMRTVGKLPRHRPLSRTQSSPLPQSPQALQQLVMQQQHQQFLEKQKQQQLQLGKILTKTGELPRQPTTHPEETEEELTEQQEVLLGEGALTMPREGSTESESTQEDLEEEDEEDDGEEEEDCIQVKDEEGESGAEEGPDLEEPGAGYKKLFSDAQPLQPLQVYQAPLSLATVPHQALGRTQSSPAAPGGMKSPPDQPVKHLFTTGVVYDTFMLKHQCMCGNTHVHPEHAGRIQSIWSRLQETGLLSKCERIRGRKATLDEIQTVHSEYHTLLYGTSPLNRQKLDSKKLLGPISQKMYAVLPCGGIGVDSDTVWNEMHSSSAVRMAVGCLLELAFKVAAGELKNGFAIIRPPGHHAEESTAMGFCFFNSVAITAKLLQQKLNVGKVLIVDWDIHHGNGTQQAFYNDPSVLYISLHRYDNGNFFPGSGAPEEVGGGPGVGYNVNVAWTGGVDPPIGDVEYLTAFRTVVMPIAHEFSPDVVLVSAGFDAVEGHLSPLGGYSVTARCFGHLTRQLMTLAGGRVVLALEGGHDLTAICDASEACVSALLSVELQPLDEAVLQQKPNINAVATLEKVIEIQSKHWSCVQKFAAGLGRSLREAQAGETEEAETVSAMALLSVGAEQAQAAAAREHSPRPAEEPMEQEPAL
Chain of Histone deacetylase 2 (Q92769 whole entry): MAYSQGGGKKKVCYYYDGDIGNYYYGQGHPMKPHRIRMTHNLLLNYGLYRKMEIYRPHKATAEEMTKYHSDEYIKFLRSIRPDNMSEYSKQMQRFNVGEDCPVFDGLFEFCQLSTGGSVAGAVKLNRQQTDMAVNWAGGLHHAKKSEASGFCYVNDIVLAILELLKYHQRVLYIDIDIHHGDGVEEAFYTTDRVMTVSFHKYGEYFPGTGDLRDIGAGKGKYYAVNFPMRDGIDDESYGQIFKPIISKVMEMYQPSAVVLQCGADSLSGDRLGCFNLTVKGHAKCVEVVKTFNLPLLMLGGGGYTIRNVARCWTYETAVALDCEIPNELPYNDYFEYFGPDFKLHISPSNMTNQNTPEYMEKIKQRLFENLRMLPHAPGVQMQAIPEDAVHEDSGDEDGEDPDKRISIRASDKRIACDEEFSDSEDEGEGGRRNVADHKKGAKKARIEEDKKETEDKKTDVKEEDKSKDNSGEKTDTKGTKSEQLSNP
Chain of CYP2C9 (P11712 whole entry): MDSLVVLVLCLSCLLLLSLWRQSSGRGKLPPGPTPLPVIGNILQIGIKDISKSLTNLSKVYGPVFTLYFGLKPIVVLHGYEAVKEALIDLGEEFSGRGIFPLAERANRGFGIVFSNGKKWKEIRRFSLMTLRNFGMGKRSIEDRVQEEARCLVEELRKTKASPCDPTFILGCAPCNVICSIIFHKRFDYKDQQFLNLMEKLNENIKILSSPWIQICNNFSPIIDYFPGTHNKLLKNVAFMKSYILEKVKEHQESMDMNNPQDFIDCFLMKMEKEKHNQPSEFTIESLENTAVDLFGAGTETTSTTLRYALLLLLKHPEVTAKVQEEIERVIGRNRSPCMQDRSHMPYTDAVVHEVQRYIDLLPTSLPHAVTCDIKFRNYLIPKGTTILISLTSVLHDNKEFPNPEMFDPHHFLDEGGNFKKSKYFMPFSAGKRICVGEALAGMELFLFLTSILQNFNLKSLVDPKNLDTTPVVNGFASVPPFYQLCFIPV

Structure (SMILES)	IC50 (HCT-116)	IC50 [1]	IC50 [2]	IC50 (MGC-803 [3])	IC50 (Histone deacetylase 5)	IC50 (Histone deacetylase 1)	further results
O=C(NO)c1ccc(/C=C/c2ccnc(-c3cccc(O)c3)c2)cc1	1610 nM	1830 nM	19 nM	2100 nM	> 10000 nM	290 nM	–
O=C(NO)c1ccc(/C=C/c2cc(-c3ccc(C(F)(F)F)cc3)ncc2F)cc1	> 10000 nM	–	–	> 10000 nM	–	2950 nM	inhibition [4]: 5.6%
O=C(CCCCCCC(=O)Nc1ccccc1)NO [VORINOSTAT]	1850 nM	–	–	1540 nM	–	–	Activity (MGC-803 [5]): 73.8%
O=C(NO)c1ccc(/C=C/c2ccncc2)cc1	3910 nM	850 nM	130 nM	3930 nM	> 10000 nM	630 nM	–
O=C(NO)c1ccc(/C=C/c2ccnc(-c3cccc(CO)c3)c2)cc1	1700 nM	1140 nM	34 nM	1740 nM	> 10000 nM	280 nM	–
O=C(NO)c1ccc(/C=C/c2ccnc(-c3cccnc3)c2)cc1	5140 nM	1370 nM	14 nM	4550 nM	> 10000 nM	580 nM	–
O=C(NO)c1ccc(/C=C/c2ccnc(-c3ccc(C(F)(F)F)cc3)c2)cc1	> 10000 nM	–	–	> 10000 nM	–	4840 nM	inhibition [4]: 33%
O=C(NO)c1ccc(/C=C/c2cccc(-c3ccccc3O)c2)cc1	4230 nM	1950 nM	180 nM	5990 nM	> 10000 nM	930 nM	–
O=C(NO)c1ccc(/C=C/c2ccnc(-c3cc(F)ccc3O)c2)cc1	2040 nM	2200 nM	130 nM	1920 nM	9340 nM	1140 nM	–
O=C(NO)c1ccc(/C=C/c2cncc(-c3ccc(C(F)(F)F)cc3)c2)cc1	> 10000 nM	–	–	> 10000 nM	–	–	inhibition [4]: 5.6%
O=C(NO)c1ccc(/C=C/c2ccnc(Br)c2)cc1	> 10000 nM	1020 nM	320 nM	> 10000 nM	> 10000 nM	3660 nM	–
O=C(NO)c1cccc(/C=C/c2ccnc(-c3cc(F)ccc3O)c2)c1	3890 nM	–	400 nM	2710 nM	> 10000 nM	1510 nM	IC50 (Histone deacetylase 2): 2060 nM
Cc1ccc(-c2cc(/C=C/c3ccc(C(=O)NO)cc3)c(F)cn2)c(F)c1	1670 nM	–	–	2510 nM	–	880 nM	inhibition [4]: 55.2%
O=C(NO)c1ccc(/C=C/c2ccnc(-c3ccsc3)c2)cc1	1910 nM	2030 nM	54 nM	3680 nM	> 10000 nM	210 nM	–
COc1ccccc1-c1cc(/C=C/c2ccc(C(=O)NO)cc2)ccn1	8440 nM	1070 nM	28 nM	6350 nM	> 10000 nM	1040 nM	–
Cc1ccc(-c2cncc(/C=C/c3ccc(C(=O)NO)cc3)c2)c(F)c1	2990 nM	3060 nM	150 nM	2240 nM	> 10000 nM	1070 nM	–

Structure (SMILES)	IC50 (HCT-116)	IC50 [1]	IC50 [2]	IC50 (MGC-803 [3])	IC50 (Histone deacetylase 5)	IC50 (Histone deacetylase 1)	further results
COc1ccc(-c2cc(/C=C/c3ccc(C(=O)NO)cc3)ccn2)cc1	3560 nM	1900 nM	110 nM	3510 nM	> 10000 nM	690 nM	–
O=c1cc(-c2ccccc2)oc2c1ccc1ccccc12 [ALPHA-NAPHTHOFLAVONE]	–	–	–	–	–	–	inhibition at 0.2 µM (CYP1A2): 90.9%
O=C(NO)c1ccc(/C=C/c2ccnc(-c3ccc(F)cc3)c2)cc1	> 10000 nM	–	–	> 10000 nM	–	–	inhibition [4]: 21.2%
COc1ccc(F)cc1-c1cncc(/C=C/c2ccc(C(=O)NO)cc2)c1	3410 nM	1600 nM	93 nM	3360 nM	> 10000 nM	670 nM	–
Cc1ccc(-c2cc(/C=C/c3ccc(C(=O)NO)cc3)ccn2)cc1	2390 nM	2700 nM	150 nM	1910 nM	> 10000 nM	960 nM	–
N[C@H]1CC[C@H](N[C@@H]2C[C@H]2c2ccccc2)CC1	–	–	–	–	–	–	IC50 (BGC-823): > 50000 nM; IC50 (NCI-N87): > 50000 nM; IC50 (MKN-1): > 50000 nM; IC50 (SNU1): > 50000 nM; IC50 (AGS): > 50000 nM; IC50 (MKN-45): > 50000 nM
O=C(NO)c1cccc(/C=C/c2ccnc(-c3ccccc3O)c2)c1	3360 nM	2260 nM	390 nM	2810 nM	> 10000 nM	1470 nM	IC50 (Histone deacetylase 2): 1870 nM
Cc1ccc(-c2cc(/C=C/c3ccc(C(=O)NO)cc3)c(F)cn2)cc1	> 10000 nM	–	–	> 10000 nM	–	1180 nM	inhibition [4]: 20.7%
O=C(NO)c1ccc(/C=C/c2cccc(-c3cccc(O)c3)c2)cc1	> 10000 nM	3650 nM	200 nM	8820 nM	> 10000 nM	1240 nM	–
Cc1ccc(-c2cncc(/C=C/c3ccc(C(=O)NO)cc3)c2)cc1	> 10000 nM	–	–	> 10000 nM	–	43600 nM	inhibition [4]: 29.8%
Nc1ccc(S(=O)(=O)Nc2ccnn2-c2ccccc2)cc1 [SULFAPHENAZOLE]	–	–	–	–	–	–	inhibition at 1 µM (CYP2C9): 79.9%
C/C(=N\NC(=O)c1cccc(S(=O)(=O)N2CCOCC2)c1)c1cc(Cl)ccc1O	–	–	–	–	–	–	IC50 (BGC-823): 8080 nM; IC50 (NCI-N87): 10500 nM; IC50 (MKN-1): 8980 nM; IC50 (SNU1): 8030 nM; IC50 (AGS): 6190 nM; IC50 (MKN-45): 26700 nM
O=C(/C=C/c1ccc(/C=C/c2ccnc(-c3ccccc3O)c2)cc1)NO	> 10000 nM	–	–	> 10000 nM	–	470 nM	inhibition [4]: 22.9%
N/C(=N\O)c1cccc(/C=C/c2ccnc(-c3cc(F)ccc3O)c2)c1	–	–	–	–	–	–	inhibition at 10 µM (MGC-803 [6]): 35.3%
O=C(NO)c1ccc(/C=C/c2cncc(-c3ccccc3O)c2)cc1	4680 nM	510 nM	13 nM	5460 nM	> 10000 nM	3370 nM	–
O=C(NO)c1ccc(/C=C/c2cccc(-c3cc(F)ccc3O)c2)cc1	> 10000 nM	3510 nM	240 nM	> 10000 nM	> 10000 nM	2120 nM	–
